# Tests used:
# hPAD4 enzyme [1] = target: T1, hPAD4 enzyme (Homo sapiens, UniProt Q9UM07); assay: RFMS Assay 1 (rapid-fire mass spectrum PAD4 inhibition assay, BAEE substrate); assay type: biochemical; conditions: 5 nM hPAD4 enzyme, 250 μM BAEE, 30 mins compound and enzyme preincubation at 37° C., 90 min enzyme/substrate reaction
# How it was run: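 Human PAD4 (5 nM) preincubated 30 min at 37 °C with compound (top 50 μM, 0.5% DMSO), then 250 μM BAEE for 90 min at 37 °C in pH 7.5 HEPES with 50 μM calcium, 5 μM TPEN, 1 mM DTT. Product derivatized with phenyl glyoxal; citrulline product quantified by RapidFire MS/MS MRM, normalized to internal standard.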
# hPAD4 enzyme [2] = target: T1, hPAD4 enzyme; assay: RFMS Assay 2 (rapid-fire mass spectrum PAD4 inhibition assay, peptide substrate); assay type: biochemical; conditions: 35 nM recombinant human PAD4, substrate TSTGGRQGSHH, room temperature for 30 minutes; read-out: human PAD4 (hPAD4) IC50, RFMS Assay 2
# Protocol: Stock compounds were dissolved and stored in 100% DMSO. Compound solutions were prepared via serial dilution at 3-fold intervals in DMSO with top compound concentration at […] in each assay. 0.25 μl of compound solution was transferred from the compound plate to the assay plate by using an acoustic dispenser. Final assay conditions: • Total reaction volume: 25 μl • Assay buffer: […] pH 7.4, 200 mM NaCl, 2 mM CaCl2, 5 mM DTT • 35 nM recombinant human PAD4 • 500 µM TSTGGRQGSHH (SEQ ID NO: 1) • 1.2% DMSO • Stop solution: 10% formic acid
# Reaction mixtures were incubated at room temperature for 30 minutes. 10 μl each of the reaction mixtures was then mixed with 40 μl of 10% formic acid in a microtiter plate. The plate was frozen at −80° C. before shipping out on dry ice for RapidFire mass spectroscopy analysis.
# Thawed samples were loaded onto the Rapid Fire 300 system (Agilent) wherein they were first sipped for 250 ms and then loaded onto a Agilent “C” (C18) cartridge using a mobile phase of water containing 0.09% formic acid/0.01% trifluoroacetic acid for 3000 ms desalting flowing at a rate of 1.5 ml/min. Once the samples were loaded and washed, a mobile phase of acetonitrile containing 0.09% formic acid/0.01% trifluoroacetic acid was used to elute the samples directly onto a Sciex API4000 triple quadrupole mass spectrometer for 3000 ms at a flow rate of 1.25 ml/min.
# MRM transitions for substrate and product were monitored in positive ESI mode at m/z=562.3/969.7 and m/z=562.8/541.3 respectively. The dwell time for each transition was set at 100 ms, and the ESI voltage was used at 5500 with a source temperature of 650° C. Extracted ion peaks for each transition were integrated using the Rapid Fire Integrator software.
# T1 sequence (Q9UM07 whole entry): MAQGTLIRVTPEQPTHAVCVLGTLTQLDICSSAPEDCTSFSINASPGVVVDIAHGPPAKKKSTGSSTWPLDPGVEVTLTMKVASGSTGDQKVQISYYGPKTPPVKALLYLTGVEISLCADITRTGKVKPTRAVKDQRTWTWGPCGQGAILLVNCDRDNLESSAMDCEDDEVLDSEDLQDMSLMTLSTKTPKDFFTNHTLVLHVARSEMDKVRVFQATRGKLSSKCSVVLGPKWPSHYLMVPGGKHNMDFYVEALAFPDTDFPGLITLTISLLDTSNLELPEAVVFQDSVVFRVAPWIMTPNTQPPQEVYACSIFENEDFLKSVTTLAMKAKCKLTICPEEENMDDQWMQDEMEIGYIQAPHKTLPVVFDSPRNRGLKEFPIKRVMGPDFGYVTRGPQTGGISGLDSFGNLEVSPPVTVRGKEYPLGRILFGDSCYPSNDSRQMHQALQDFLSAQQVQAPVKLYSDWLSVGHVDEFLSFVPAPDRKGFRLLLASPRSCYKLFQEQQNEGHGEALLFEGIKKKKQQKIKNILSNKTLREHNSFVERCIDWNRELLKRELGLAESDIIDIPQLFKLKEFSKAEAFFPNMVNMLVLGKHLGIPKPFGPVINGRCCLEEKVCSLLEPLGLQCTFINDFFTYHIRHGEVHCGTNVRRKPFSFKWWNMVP
SMILES,IC50 (hPAD4 enzyme [1]),IC50 (hPAD4 enzyme [2])
"Cn1c(-c2cc3cccc(OCCn4cncc4F)c3n2CC2CC2)nc2cc3c(nc21)CCN(C[C@H](N)CF)C3=O [Example 42, (S)-7-(2-amino-3-fluoropropyl)-2-(1-(cyclopropylmethyl)-7-(2-(5-fluoro-1H-imidazol-1-yl)ethoxy)-1H-indol-2-yl)-3-methyl-3,5,6,7-tetrahydro-8H-imidazo[4,5-b][1,6]naphthyridin-8-one]",11 to 100 nM,101 to 500 nM
"Cn1c(-c2cc3cccc(OCCc4ccn[nH]4)c3n2CC2CC2)nc2cc3c(nc21)CCN(C[C@H](N)CF)C3=O [Example 43, (S)-2-(7-(2-(1H-pyrazol-5-yl)ethoxy)-1-(cyclopropylmethyl)-1H-indol-2-yl)-7-(2-amino-3-fluoropropyl)-3-methyl-3,5,6,7-tetrahydro-8H-imidazo[4,5-b][1,6]naphthyridin-8-one]",≤ 10 nM,11 to 100 nM
"Cn1c(-c2cc3cccc(OCCc4cnn[nH]4)c3n2CC2CC2)nc2cc3c(nc21)CCN(C[C@H](N)CF)C3=O [Example 47, (S)-2-(7-(2-(1H-1,2,3-triazol-5-yl)ethoxy)-1-(cyclopropylmethyl)-1H-indol-2-yl)-7-(2-amino-3-fluoropropyl)-3-methyl-3,5,6,7-tetrahydro-8H-imidazo[4,5-b][1,6]naphthyridin-8-one]",≤ 10 nM,11 to 100 nM
"Cn1c(-c2cc3cccc(OC[C@@H]4CNC(=O)O4)c3n2CC2CC2)nc2cc3c(nc21)CCN(C[C@H](N)CF)C3=O [Example 34, (S)-5-(((2-(7-((S)-2-amino-3-fluoropropyl)-3-methyl-8-oxo-5,6,7,8-tetrahydro-3H-imidazo[4,5-b][1,6]naphthyridin-2-yl)-1-(cyclopropylmethyl)-1H-indol-7-yl)oxy)methyl)oxazolidin-2-one]",≤ 10 nM,11 to 100 nM
"Cn1c(-c2cc3cccc(OCC(C)(C)n4ccnc4)c3n2CC2CC2)nc2cc3c(nc21)CCN(C[C@H](N)CF)C3=O [Example 96, (S)-2-(7-(2-(1H-imidazol-1-yl)-2-methylpropoxy)-1-(cyclopropylmethyl)-1H-indol-2-yl)-7-(2-amino-3-fluoropropyl)-3-methyl-3,5,6,7-tetrahydro-8H-imidazo[4,5-b][1,6]naphthyridin-8-one]",≤ 10 nM,101 to 500 nM
"COc1cccc2cc(-c3nc4cc5c(nc4n3C)CCN(C[C@H](N)CF)C5=O)n(Cc3ccno3)c12 [Example 7, (S)-7-(2-amino-3-fluoropropyl)-2-(1-(isoxazol-5-ylmethyl)-7-methoxy-1H-indol-2-yl)-3-methyl-3,5,6,7-tetrahydro-8H-imidazo[4,5-b][1,6]naphthyridin-8-one]",11 to 100 nM,101 to 500 nM
"Cn1c(-c2cc3cccnc3n2CC2CC2)nc2cc3c(nc21)CCN(C[C@H](N)CF)C3=O [Example 19, (S)-7-(2-amino-3-fluoropropyl)-2-(1-(cyclopropylmethyl)-1H-pyrrolo[2,3-b]pyridin-2-yl)-3-methyl-3,5,6,7-tetrahydro-8H-imidazo[4,5-b][1,6]naphthyridin-8-one]",501 to 1000 nM,> 1000 nM
"Cn1c(-c2cc3cccc(OCCc4ccon4)c3n2CC2CC2)nc2cc3c(nc21)CCN(C[C@H](N)CF)C3=O [Example 46, (S)-7-(2-amino-3-fluoropropyl)-2-(1-(cyclopropylmethyl)-7-(2-(isoxazol-3-yl)ethoxy)-1H-indol-2-yl)-3-methyl-3,5,6,7-tetrahydro-8H-imidazo[4,5-b][1,6]naphthyridin-8-one]",≤ 10 nM,11 to 100 nM
"Cn1c(-c2cc3cccc(OCCn4cnc(F)c4)c3n2CC2CC2)nc2cc3c(nc21)CCN(C[C@H](N)CF)C3=O [Example 70, (S)-7-(2-amino-3-fluoropropyl)-2-(1-(cyclopropylmethyl)-7-(2-(4-fluoro-1H-imidazol-1-yl)ethoxy)-1H-indol-2-yl)-3-methyl-3,5,6,7-tetrahydro-8H-imidazo[4,5-b][1,6]naphthyridin-8-one]",≤ 10 nM,11 to 100 nM
"Cn1c(-c2cc3cccc(OC[C@@H]4CNC(=O)C4)c3n2CC2CC2)nc2cc3c(nc21)CCN(C[C@H](N)CF)C3=O [Example 59, 7-((S)-2-amino-3-fluoropropyl)-2-(1-(cyclopropylmethyl)-7-(((S)-5-oxopyrrolidin-3-yl)methoxy)-1H-indol-2-yl)-3-methyl-3,5,6,7-tetrahydro-8H-imidazo[4,5-b][1,6]naphthyridin-8-one]",11 to 100 nM,11 to 100 nM
"COc1cccc2cc(-c3nc4cc5c(nc4n3C)CCN(C[C@H]3COCCN3)C5=O)n(CC3(F)CC3)c12 [Example 26, (S)-2-(1-((1-fluorocyclopropyl)methyl)-7-methoxy-1H-indol-2-yl)-3-methyl-7-(morpholin-3-ylmethyl)-3,5,6,7-tetrahydro-8H-imidazo[4,5-b][1,6]naphthyridin-8-one]",101 to 500 nM,101 to 500 nM
"COc1cccc2cc(-c3nc4cc5c(nc4n3C)CCN(C[C@H](N)CF)C5=O)n(Cc3cc(C)no3)c12 [Example 12, (S)-7-(2-amino-3-fluoropropyl)-2-(7-methoxy-1-((3-methylisoxazol-5-yl)methyl)-1H-indol-2-yl)-3-methyl-3,5,6,7-tetrahydro-8H-imidazo[4,5-b][1,6]naphthyridin-8-one]",101 to 500 nM,101 to 500 nM
"COc1cc(F)cc2cc(-c3nc4cc5c(nc4n3C)CCN(C[C@H](N)CF)C5=O)n(Cc3ccno3)c12 [Example 22, (S)-7-(2-amino-3-fluoropropyl)-2-(5-fluoro-1-(isoxazol-5-ylmethyl)-7-methoxy-1H-indol-2-yl)-3-methyl-3,5,6,7-tetrahydro-8H-imidazo[4,5-b][1,6]naphthyridin-8-one]",101 to 500 nM,101 to 500 nM
"Cn1c(-c2cc3cccc(OC(F)Cn4cncc4F)c3n2CC2CC2)nc2cc3c(nc21)CCN(C[C@H](N)CF)C3=O (single isomer, unassigned) [Example 75a]",≤ 10 nM,11 to 100 nM
"Cn1c(-c2cc3cccc(OCCc4cnco4)c3n2CC2CC2)nc2cc3c(nc21)CCN(C[C@H](N)CF)C3=O [Example 41, (S)-7-(2-amino-3-fluoropropyl)-2-(1-(cyclopropylmethyl)-7-(2-(oxazol-5-yl)ethoxy)-1H-indol-2-yl)-3-methyl-3,5,6,7-tetrahydro-8H-imidazo[4,5-b][1,6]naphthyridin-8-one]",≤ 10 nM,11 to 100 nM
"Cn1c(-c2cc3cccc(OCCc4cnoc4)c3n2CC2CC2)nc2cc3c(nc21)CCN(C[C@H](N)CF)C3=O [Example 39, (S)-7-(2-amino-3-fluoropropyl)-2-(1-(cyclopropylmethyl)-7-(2-(isoxazol-4-yl)ethoxy)-1H-indol-2-yl)-3-methyl-3,5,6,7-tetrahydro-8H-imidazo[4,5-b][1,6]naphthyridin-8-one]",≤ 10 nM,11 to 100 nM
"Cc1cn(CCOc2cccc3cc(-c4nc5cc6c(nc5n4C)CCN(C[C@H](N)CF)C6=O)n(CC4CC4)c23)cn1 [Example 72, (S)-7-(2-amino-3-fluoropropyl)-2-(1-(cyclopropylmethyl)-7-(2-(4-methyl-1H-imidazol-1-yl)ethoxy)-1H-indol-2-yl)-3-methyl-3,5,6,7-tetrahydro-8H-imidazo[4,5-b][1,6]naphthyridin-8-one]",11 to 100 nM,101 to 500 nM
